According to article PMC7719162, “Positioning of an unprecedented spiro[5.5]undeca ring system into kinase inhibitor space” (Scientific Reports, 2020):
Read-outs that look alike come from different tables or passages of the source.

How the values were obtained:
[1] = target: T1, PI4K2A (Homo sapiens, UniProt Q9BTU6); experiment: Kinase panel assay (lipid kinase); type: biochemical; settings: control PIK-93
T1 construct: purchased Reaction Biology Corp
Method: (§1) Every inhibitory activity of tested compounds was measured by radiolabelled method of Reaction Biology Corp). The radiolabelled ATP ([γ-^33P] ATP) replaced a substrate with ^33P-phosphorylated substrate so that the activity of a kinase was measured from the radiolabelled phosphorylated substrate. Kinase panel assay was tested at 30 μM testing compounds with an ATP concentration of 10 μM and a substrate concentration of 10 μM. % Residual activity against GSK3β was measured at 10 uM compounds 1 and 2. […] Curve fits of control compounds were performed where the enzyme activities at the highest concentration of compounds were less than 65%. The concentration of DMSO was controlled and raw data, % kinase activity was calculated relative to DMSO controls.

[2] = target: T2, PI3KC3 (Homo sapiens, UniProt Q8NEB9); experiment: Kinase panel assay (lipid kinase); type: biochemical; settings: control PIK-93
T2 construct: purchased Reaction Biology Corp
Method: as §1

[3] = target: T3, PIP5K1A (Homo sapiens, UniProt Q99755); experiment: Kinase panel assay (lipid kinase); type: biochemical; settings: control PIK-93
T3 construct: purchased Reaction Biology Corp
Method: as §1

[4] = target: T4, PIP5K1C (Homo sapiens, UniProt O60331); experiment: Kinase panel assay (lipid kinase); type: biochemical; settings: control PIK-93
T4 construct: purchased Reaction Biology Corp
Method: as §1

[5] = test system: BV-2 cells; experiment: MTT cell viability assay; type: cell-based, murine; settings: 5 μM compound, % of LPS, mean ± SD
Method: (§2) 3-(4,5-dimethylthiazol-2-yl)-2,5-diphenyl-tetrazolium bromide (MTT) assay was performed to evaluate the cytotoxicity of the samples to the microglia. BV2 cells at the density of 4 × 10^4 cells /well were seeded in the 96 well plate and incubated for 24 h. Seeded cells were pre-treated with different concentration of the samples, and LPS (100 ng/ml) activation was performed after 30 min of compound treatment. Treated plate were incubated for 24 h in the incubator and nitric oxide assay and cell viability assay was performed. Treated cell’s conditioned medium was used to evaluate the NO assay, and the attached cells were used to evaluate the cell viability assay. 50 µL of conditioned medium (CM) from treated cells were transferred to a new 96 well plate for NO assay. This CM was mixed with the equal volume of the mixture of Gries reagent ((1% sulfanilamide and 0.1% N-1-napthylethylenediamine dihydrochloride). NaNO2 was used as standard and the colorimetric change were evidenced by measuring its OD at 540 nm in a microplate reader. The cells in the plate were incubated for 1 h with MTT solution making it the final concentration of […]. Blue stained cells were incubated with 200 ul of DMSO and the solution get changed to purple/formazan color and it was observed by measuring the absorbance at 570 nm in a microplate reader.NG-mono-methyl-L-arginine (L-NMMA), a well-known nitric oxide synthase (NOS) inhibitor, was used as a positive control.

[6] = target: GSK3β (Homo sapiens, UniProt P49841); experiment: GSK3β radiolabelled kinase assay (% residual activity, IC50, ATP competition); type: biochemical; settings: at 10 μM compound
[7] = test system: NO production in LPS-activated BV-2 cells; experiment: NO production assay (Griess) in LPS-activated BV-2 cells; type: cell-based, murine; settings: read-out: NO Inhibition IC50
Method: as §2

[8] = target: T5, PI3KC2A (Homo sapiens, UniProt O00443); experiment: Kinase panel assay (lipid kinase); type: biochemical; settings: read-out: IC50 (M) of Control (+)
T5 construct: purchased Reaction Biology Corp
Method: as §1

[9] = test system: COX-2; experiment: Western blot of COX-2 in LPS-induced BV-2 cells; type: cell-based, murine; settings: 0.01 to 1 uM
Method: (§3) Western blot analysis was performed to see the protein expression of the iNOS and COX-2 in the BV2 cells. BV2 cells were seeded in a 6 well plate at the density of 6 × 10^5 cells/well overnight and cells were treated as mentioned earlier in the cell treatment section and this time treatment was performed for 6 h only. After 6 h, cells were harvested and lysed with lysis buffer containing (RIPA, protease inhibitor & phosphatase inhibitor), protein estimation was performed using biorad assay and the 30 µg of total protein was separated by 8% SDS-PAGE gel electrophoresis, transferred to nitrocellulose membranes, and incubated with primary antibodies against tubulin, iNOS, COX-2, and α-tubulin. […] membranes were incubated with horseradish peroxidase-conjugated secondary antibodies, and protein bands were visualized using ECL Western Blotting Detection Reagents (Amersham Pharmacia Biotech). Quantitative analysis of the protein bands was quantified using Image Master 2D Elite software (version 3.1, Amersham Pharmacia Biotech).

[10] = MTT cell viability assay; type: cell-based, murine; settings: mouse, BV-2 microglia cells (LPS-activated), mean ± SD
Method: as §2

[11] = test system: iNOS; experiment: Western blot of iNOS in LPS-induced BV-2 cells; type: cell-based, murine; settings: 0.01 to 1 uM, LPS-induced BV-2 cells
Method: as §3

Chain of GSK3β (P49841 whole entry): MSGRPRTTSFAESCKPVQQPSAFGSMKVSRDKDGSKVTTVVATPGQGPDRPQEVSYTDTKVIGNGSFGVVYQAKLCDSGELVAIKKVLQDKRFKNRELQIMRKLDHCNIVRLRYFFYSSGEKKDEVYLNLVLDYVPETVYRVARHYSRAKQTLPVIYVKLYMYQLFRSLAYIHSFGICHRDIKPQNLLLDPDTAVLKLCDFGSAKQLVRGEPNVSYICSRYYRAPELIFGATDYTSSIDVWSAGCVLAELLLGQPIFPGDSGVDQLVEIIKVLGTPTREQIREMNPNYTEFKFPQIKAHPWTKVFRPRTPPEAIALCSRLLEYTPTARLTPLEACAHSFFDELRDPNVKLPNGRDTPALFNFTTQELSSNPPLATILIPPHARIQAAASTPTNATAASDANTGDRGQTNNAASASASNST
T2 sequence (Q8NEB9 whole entry): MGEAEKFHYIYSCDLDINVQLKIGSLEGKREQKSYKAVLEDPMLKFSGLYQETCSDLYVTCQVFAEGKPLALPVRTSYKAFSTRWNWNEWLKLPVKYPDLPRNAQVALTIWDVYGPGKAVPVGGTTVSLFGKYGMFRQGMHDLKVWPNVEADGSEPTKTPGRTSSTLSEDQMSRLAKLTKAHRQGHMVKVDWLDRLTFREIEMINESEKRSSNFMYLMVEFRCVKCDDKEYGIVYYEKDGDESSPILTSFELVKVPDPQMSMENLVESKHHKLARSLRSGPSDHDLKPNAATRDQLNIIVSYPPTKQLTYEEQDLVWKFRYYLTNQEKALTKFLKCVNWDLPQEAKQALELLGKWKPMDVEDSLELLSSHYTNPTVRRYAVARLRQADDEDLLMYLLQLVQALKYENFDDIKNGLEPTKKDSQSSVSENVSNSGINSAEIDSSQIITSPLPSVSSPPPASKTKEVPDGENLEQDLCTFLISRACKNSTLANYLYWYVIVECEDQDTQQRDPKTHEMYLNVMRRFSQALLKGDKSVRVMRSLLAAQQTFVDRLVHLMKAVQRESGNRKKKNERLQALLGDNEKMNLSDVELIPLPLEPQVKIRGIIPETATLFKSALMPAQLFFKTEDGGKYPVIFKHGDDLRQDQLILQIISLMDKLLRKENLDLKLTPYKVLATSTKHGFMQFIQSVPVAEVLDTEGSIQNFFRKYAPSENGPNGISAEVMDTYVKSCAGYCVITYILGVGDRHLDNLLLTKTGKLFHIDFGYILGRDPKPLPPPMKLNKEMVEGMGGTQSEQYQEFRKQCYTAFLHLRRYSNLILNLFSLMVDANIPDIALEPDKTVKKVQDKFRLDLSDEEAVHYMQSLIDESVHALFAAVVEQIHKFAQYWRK
T5 sequence (O00443 whole entry): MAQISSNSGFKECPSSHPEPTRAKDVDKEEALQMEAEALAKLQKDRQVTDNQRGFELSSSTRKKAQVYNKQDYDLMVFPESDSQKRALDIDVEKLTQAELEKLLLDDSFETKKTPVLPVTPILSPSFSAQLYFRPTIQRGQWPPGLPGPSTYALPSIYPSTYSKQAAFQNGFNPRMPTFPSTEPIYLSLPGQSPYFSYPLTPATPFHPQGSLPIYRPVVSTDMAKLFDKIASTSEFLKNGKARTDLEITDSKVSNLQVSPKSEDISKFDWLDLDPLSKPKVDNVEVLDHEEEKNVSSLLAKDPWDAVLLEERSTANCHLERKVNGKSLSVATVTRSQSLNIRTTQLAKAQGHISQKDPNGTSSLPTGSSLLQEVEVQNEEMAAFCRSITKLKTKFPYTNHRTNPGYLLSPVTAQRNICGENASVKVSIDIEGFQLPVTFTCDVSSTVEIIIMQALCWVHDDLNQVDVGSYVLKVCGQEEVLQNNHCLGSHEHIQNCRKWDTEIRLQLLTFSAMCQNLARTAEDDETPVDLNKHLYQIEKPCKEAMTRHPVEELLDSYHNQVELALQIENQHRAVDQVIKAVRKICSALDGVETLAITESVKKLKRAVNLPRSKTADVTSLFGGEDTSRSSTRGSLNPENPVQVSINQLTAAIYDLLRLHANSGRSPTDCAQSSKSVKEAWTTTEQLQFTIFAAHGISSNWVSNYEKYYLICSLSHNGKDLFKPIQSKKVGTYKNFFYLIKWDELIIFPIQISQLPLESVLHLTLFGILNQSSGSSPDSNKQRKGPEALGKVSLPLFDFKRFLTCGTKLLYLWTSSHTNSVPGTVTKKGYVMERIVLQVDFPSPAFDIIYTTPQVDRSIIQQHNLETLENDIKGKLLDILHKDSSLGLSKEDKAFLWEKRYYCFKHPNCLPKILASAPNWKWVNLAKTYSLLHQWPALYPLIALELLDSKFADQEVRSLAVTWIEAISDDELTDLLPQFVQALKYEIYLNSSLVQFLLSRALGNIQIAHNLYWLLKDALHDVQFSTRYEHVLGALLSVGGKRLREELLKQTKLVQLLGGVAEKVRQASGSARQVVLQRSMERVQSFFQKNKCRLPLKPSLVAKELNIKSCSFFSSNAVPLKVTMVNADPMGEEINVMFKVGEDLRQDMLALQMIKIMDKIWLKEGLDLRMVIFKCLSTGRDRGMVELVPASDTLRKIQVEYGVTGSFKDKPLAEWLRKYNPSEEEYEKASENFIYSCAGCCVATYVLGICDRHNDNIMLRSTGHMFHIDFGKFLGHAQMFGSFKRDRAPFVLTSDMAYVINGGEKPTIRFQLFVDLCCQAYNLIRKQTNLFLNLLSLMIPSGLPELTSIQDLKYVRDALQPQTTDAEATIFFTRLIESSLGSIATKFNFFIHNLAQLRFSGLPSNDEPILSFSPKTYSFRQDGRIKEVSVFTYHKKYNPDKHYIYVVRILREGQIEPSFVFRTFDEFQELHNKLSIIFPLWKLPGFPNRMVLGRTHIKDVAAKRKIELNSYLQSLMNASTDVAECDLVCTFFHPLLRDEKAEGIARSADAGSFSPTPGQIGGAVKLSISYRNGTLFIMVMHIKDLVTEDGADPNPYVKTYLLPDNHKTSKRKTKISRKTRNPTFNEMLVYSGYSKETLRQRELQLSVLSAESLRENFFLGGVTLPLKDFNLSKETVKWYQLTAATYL
T3 sequence (Q99755 whole entry): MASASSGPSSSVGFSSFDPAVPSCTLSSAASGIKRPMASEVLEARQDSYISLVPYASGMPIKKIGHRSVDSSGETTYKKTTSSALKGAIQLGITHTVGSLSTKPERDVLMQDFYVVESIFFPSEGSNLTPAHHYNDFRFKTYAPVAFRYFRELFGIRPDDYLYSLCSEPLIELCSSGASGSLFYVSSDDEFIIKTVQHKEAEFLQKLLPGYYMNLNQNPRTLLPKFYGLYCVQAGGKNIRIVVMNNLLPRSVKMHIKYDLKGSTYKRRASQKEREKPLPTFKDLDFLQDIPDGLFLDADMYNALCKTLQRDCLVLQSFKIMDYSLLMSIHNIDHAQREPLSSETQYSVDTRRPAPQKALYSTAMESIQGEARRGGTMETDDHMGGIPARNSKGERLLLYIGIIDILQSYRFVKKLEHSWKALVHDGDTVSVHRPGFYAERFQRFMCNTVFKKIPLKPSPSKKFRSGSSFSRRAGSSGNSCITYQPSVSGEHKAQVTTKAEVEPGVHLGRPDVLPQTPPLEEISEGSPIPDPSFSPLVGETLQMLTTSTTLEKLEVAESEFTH
T4 sequence (O60331 whole entry): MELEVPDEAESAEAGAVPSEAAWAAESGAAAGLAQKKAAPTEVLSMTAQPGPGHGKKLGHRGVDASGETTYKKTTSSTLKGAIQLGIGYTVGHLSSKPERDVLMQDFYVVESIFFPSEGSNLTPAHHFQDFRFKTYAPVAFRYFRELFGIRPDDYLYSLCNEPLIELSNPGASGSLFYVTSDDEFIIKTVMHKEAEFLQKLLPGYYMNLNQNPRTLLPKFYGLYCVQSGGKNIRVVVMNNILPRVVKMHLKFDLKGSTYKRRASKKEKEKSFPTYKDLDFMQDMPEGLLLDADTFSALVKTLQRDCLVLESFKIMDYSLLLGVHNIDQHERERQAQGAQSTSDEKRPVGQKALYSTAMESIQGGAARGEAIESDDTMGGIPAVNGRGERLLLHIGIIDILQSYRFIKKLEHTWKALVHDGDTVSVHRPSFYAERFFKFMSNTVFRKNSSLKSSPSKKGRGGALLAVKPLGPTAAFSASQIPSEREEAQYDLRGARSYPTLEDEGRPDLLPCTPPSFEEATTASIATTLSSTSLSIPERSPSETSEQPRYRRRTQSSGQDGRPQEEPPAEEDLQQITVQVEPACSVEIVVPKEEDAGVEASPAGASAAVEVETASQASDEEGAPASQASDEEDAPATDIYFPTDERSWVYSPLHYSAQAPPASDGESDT
T1 sequence (Q9BTU6 whole entry): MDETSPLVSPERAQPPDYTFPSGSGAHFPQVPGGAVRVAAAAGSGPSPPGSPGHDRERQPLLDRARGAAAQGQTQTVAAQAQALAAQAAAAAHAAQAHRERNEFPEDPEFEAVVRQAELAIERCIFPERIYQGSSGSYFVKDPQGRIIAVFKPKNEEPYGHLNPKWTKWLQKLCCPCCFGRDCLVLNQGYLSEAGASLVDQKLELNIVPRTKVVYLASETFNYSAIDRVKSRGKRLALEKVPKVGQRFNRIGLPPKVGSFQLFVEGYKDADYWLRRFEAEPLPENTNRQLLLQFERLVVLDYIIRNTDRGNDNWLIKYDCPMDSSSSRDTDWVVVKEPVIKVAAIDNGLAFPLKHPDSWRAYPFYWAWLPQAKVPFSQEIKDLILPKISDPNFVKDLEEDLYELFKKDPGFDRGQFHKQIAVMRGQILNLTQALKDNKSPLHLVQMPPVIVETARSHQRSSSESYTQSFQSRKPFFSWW

## CC(=O)Nc1nc(C)c(-c2ccc(Cl)c(S(=O)(=O)NCCO)c2)s1 [PIK-93, reference compound]
[1]
  IC50: 18.5 µM
[2]
  IC50: 0.0757 µM
[3]
  IC50: 61.8 µM
[4]
  IC50: 17.5 µM

## O=C1C=CC2(C=C1)OCC(Cc1ccccc1CS(=O)(=O)c1ccccc1)C(=O)N2c1ccccc1 (centres unmarked) [1b]
[5]
  Cell Viability (%): 84 ± 3%
[6]
  % GSK3β Residual Activity: 91.0 ± 12.6%
[7]
  IC50: 0.98 ± 0.03 µM

## Oc1cccc(-c2nc(N3CCOCC3)c3oc4ncccc4c3n2)c1 [PI-103, reference compound]
[8]
  IC50: 4.8e-07 M

## O=C1C=CC2(C=C1)OCC(Cc1cn(-c3ccccc3)nn1)C(=O)N2c1ccccc1 (centres unmarked) [2a, 5-Phenyl-3-((1-phenyl-1H-1,2,3-triazol-4-yl)methyl)-1-oxa-5-azaspiro[5.5]undeca-7,10-diene-4,9-dione]
[9]
  COX-2 expression level: limited potency and efficacy
[10]; 1 μM compound
  viability at 24 h, 1 µM: 92.9 ± 0.24%
[10]; 5 μM compound, % of LPS
  viability at 24 h, 5 µM: 81 ± 3%
[11]
  iNOS expression level: limited potency and efficacy
[6]
  remaining activity at 10 µM: 62.3 ± 2.3%
[7]; Mus musculus
  IC50: 0.67 ± 0.05 µM
